# According to a melting point compilation (Tetko et al.; mined from patent text by program, amines drawn as free bases though some values may be those of a salt):
row,Structure (SMILES),melting point [°C]
1,CCCCN(CCCC)c1ccc(C=Cc2ccc(C=CC3=C(C#N)C(=C(C#N)C#N)OC3(c3ccccc3)C(F)(F)F)s2)c(OCc2ccccc2)c1 (centres undefined),196 to 197
2,Cc1noc(-c2ncn3c2[C@@H]2CCCN2C(=O)c2c(Cl)cccc2-3)n1,230 to 231
3,COc1nc(C)c(C)cc1NC(=O)N1CCN(C(c2ccccc2)c2ccccc2)CC1,132 to 134
4,CN1CCc2ccc3cc[nH]c3c2CC1,150 to 153
5,CCOCc1nc2c(N)nc3cc(-c4ccncc4)ccc3c2n1CC(C)C,211 to 213
6,CC(C)CC(=O)c1ccc(Cl)cc1,39 to 40
7,CC(C)N(CCOc1ccc2c(=O)c3ccc(OCCN(C(C)C)C(C)C)cc3oc2c1)C(C)C,118
8,Sc1nnc(-c2ccc(Cl)cc2)s1,178
9,O=C(Nc1nc2ccccc2n1CCCN1CCNCC1)c1ccc(C(F)(F)F)cc1,184 to 185
10,C#CCOc1ccc2c(c1)c(-c1ccc(C(C)C)cc1)nc(=O)n2Cc1cccc(OC(C)(C)C)n1,62 to 65
11,CCCCCCCCCCCCc1cc2cc(C(=O)OCCCC)ccc2[nH]1,74 to 76
12,CC(=NOCCOc1ccc(C(=O)O)c(OC(=O)c2ccc(-c3ccccc3)cc2)c1)c1ccccc1,158 to 159
13,CN1C(=O)CC[C@]2(C)c3ccc(Sc4nc5cc(Cl)ccc5s4)cc3CC[C@@H]12,179 to 180
14,COc1ccc(-c2cc(=O)c3cc(OCCCCCCN4CCC(O)CC4)ccc3o2)cc1,134 to 135
15,COc1ccccc1-n1c(=O)[nH]c2c(C(N)=O)nc(-c3cccc4ncccc34)nc21,335 to 337
16,CC(C)(C)OC(=O)NCc1cccc(OCCC2Oc3ccccc3N(Cc3ccc(Cl)cc3)C2=O)c1 (centres undefined),114 to 116
17,C[C@@H](O)COc1c(N)ccc(F)c1F,47 to 48
18,CC(C)(C)OC(=O)c1ccc(NC2CCc3cc4nc(CO)[nH]c(=O)c4cc32)cc1 (racemic),265 to 266
19,C#CCOc1cc(N2C(=O)C3CCCCN3C2C(=O)OCC)c(F)cc1Cl (centres undefined),72 to 75
20,CNC(=S)NS(=O)(=O)c1cc(CCNC(=O)/C=C/c2ccccn2)ccc1OC,188
21,Cn1ccnc1Sc1ccc(Nc2c(C#N)cnc3cc(/C=C/CCN4CCOCC4)ccc23)cc1Cl,232 to 238
22,"Cc1nc(-c2ccc(C#CC3(O)CN4CCC3CC4)cc2)no1 (single isomer, unassigned; (-))",211 to 212
23,CC(=O)NCCCC(=O)c1ccc(Cl)cc1CCC(=O)N1CCN(C)CC1,126 to 128
24,CCCCN(C1CCCOc2ccccc21)S(C)(=O)=O (centres undefined),78 to 79
25,CC(=O)OCn1cc(C#N)c(-c2ccccc2Cl)c1,91 to 95

row,Structure (SMILES),melting point [°C]
1,CC1=C(C#N)C(=C(C#N)C#N)OC1(C)C,203
2,CC(C)(C)OC(=O)COCCCCS(=O)(=O)c1cnc(-c2ccccc2)c(-c2ccccc2)n1,88 to 90
3,COc1cc2nc(-c3cc(C)c(OCCO)c(C)c3)[nH]c(=O)c2cc1OC,> 300
4,O=C1CC(c2cccc(-n3ccnn3)c2)=Nc2ccc(-c3cccc(F)c3F)cc2N1,230
5,CCc1cc2c(cc1O)C(C)(C)CCC2(C)C,88 to 89
6,CCc1ccc(OCC(O)CN2CCC3(CC2)CSC2=C(O3)c3ccccc3C(=O)C2=O)cc1 (centres undefined),137 to 138
7,O=C1O[C@@H]2C[C@@]1(O)C=C(OCc1ccc3sccc3c1)[C@H]2O,177 to 179
8,O=C1Nc2ccccc2N2CCCC12 (centres undefined),169 to 172
9,Cc1cc2cc(Nc3ncnc4cc(-c5ccccc5)sc34)ccc2[nH]1,218 to 220
10,COC(=O)c1ccc(Cc2cccc3ccc(NC(=O)CC4CCCC4)cc23)c(OC)c1,172 to 174
11,CS(=O)(=O)c1ccc(-c2[nH]c3ccc(F)cc3c2-c2ccccc2)cc1,243 to 245
12,CCc1nc(Cl)c(C=O)n1Cc1ccc2oc(-c3ccccc3NC(=O)OC(C)(C)C)c(Br)c2c1,65 to 66
13,CCC(C)(C)c1ccc(OCCCNC(=O)c2cc(N=C=S)c3ccccc3c2O)c(C(C)(C)CC)c1,91 to 94
14,CN(C(=O)Oc1cccc2c1OC(C)(C)C2)C(=O)N1CCCCC1,98 to 100
15,CN1C(=O)C(NC(=O)Nc2ccc(Br)cc2)N=C(c2ccccc2)c2ccccc21 (centres undefined),286 to 287
16,C=CCNc1nc(N2CCCCC2)c2cc([N+](=O)[O-])ccc2n1,123 to 124
17,CCCc1cc(-c2ccc(Cl)cc2)nc2c(I)cnn12,108 to 110
18,CN1CC2(CCN(Cc3ccccc3)CC2)OC1=O,137 to 138
19,O=C(NCC(=O)N1c2ccccc2N(Cc2ccccc2)C(=O)[C@H]2CCC[C@H]21)c1ccco1 (relative stereo),169 to 170
20,CCCn1c(=O)c(C(=O)OCC)c(O)c2ccc(C)nc21,128 to 130
21,CC1(c2cc3ccccc3[nH]2)CCCCC1,50
22,Cn1c(COc2ccc(CC3SC(=O)N(C(c4ccccc4)(c4ccccc4)c4ccccc4)C3=O)cc2)nc2cc(Cl)cnc21 (centres undefined),82 to 84
23,COc1cc2ccn3c(=O)c(C(=O)O)cnc3c2cc1OC,298 to 301
24,COC(=O)CCc1ccc(OCC(C)NCC(O)c2ccccc2)cc1 (centres undefined),103 to 104
25,CCOC(CCn1c(-c2ccc(F)cc2)c(-c2ccccc2)c(C(=O)Nc2ccccc2)c1C(C)C)OCC,125 to 128

# Second part, the compound after the results:
row,melting point [°C],Structure (SMILES)
1,95 to 97,CN(C)c1ccc([N+](=O)[O-])c(C(O)c2ccccc2)c1 (centres undefined)
2,97 to 99,CC1(C)Oc2cc(Cl)c(F)cc2[C@@H](Br)[C@@H]1O (relative stereo)
3,140 to 144,COc1ccc(C(C)N(C)CCCOc2ccc(S(=O)(=O)c3c(C(C)C)cn4ccccc34)cc2)cc1 (centres undefined)
4,117,CC(C)C(O)(C#C[Si](C)(C)C)c1cncnc1 (centres undefined)
5,109 to 110,CCOP(=O)(/C=C/c1cn(-c2ccccc2)nc1OCc1ccc(OCc2nc(-c3ccccc3)oc2C)cc1)OCC
6,105,COc1ccc2ccc(N3C(=O)c4ccccc4C3OC(=O)CCCC(C)C)nc2n1 (centres undefined)
7,180 to 200,CCCCN(C)Cc1[nH]c2ccccc2c1CC1C(=O)N(c2ccccc2)N=C1C (centres undefined)
8,290,N#CC(=Cc1ccc(O)c(O)c1)C(=O)Nc1ccc(Cl)cc1
9,130 to 131,O=S(=O)(CCCl)CCC(F)(F)C(F)(F)C(F)(F)C(F)(F)C(F)(F)C(F)(F)C(F)(F)C(F)(F)F
10,275 to 276,CON(C(=O)Nc1nc(OCC(F)(F)F)cc(OCC(F)(F)F)n1)c1ccc(Cl)cc1
11,71 to 72,CC(C)C(C)(C#N)N1C(=O)c2cccc(Cl)c2C1=O (centres undefined)
12,104 to 113,CS(=O)(=O)Nc1cc([C@@H](O)CNC2CCN(c3ccc(NC(=O)c4ccc5c(c4)OCO5)cc3)CC2)ccc1O
13,63,CC1=C(OCC(C)C)CC(C)(C)C1=O
14,60,CC1(C)C2CC3=C(CCC(=O)O3)C1C2 (centres undefined)
15,212 to 214,Cc1cc(=O)[nH]c2cc(OCCCN3CCN(c4cccc(Cl)c4)CC3)ccc12
16,204 to 208,CCOC(=O)CN1C(=O)C2=C(c3ccccc3)N(CC(=O)OCC)C(=O)C2=C1c1ccccc1
17,175 to 176,COc1ccc(C2(CC3CO3)S(=O)(=O)CCCS2(=O)=O)cc1OC (centres undefined)
18,214,CC1=C(C(=O)OCC(C)C)C(c2cccc([N+](=O)[O-])c2)c2c(nc(N3CCOCC3)nc2N2CCOCC2)N1 (centres undefined)
19,144 to 145,CCOC(=O)c1c(C)cc2c(c1C)c(=O)n(-c1ccccc1C(F)(F)F)c(=O)n2CCN1CCCCC1
20,196 to 200,O=C(O)Cc1nn(C(c2ccccn2)c2ncno2)c(=O)c2ccccc12 (centres undefined)
21,140 to 142,COc1cccc(OC)c1C(=O)N1CC2CCCN2c2ccccc21 (centres undefined)
22,171,Cc1cccc(C2(C(N)=S)CCCS2)n1 (centres undefined)

row,melting point [°C],Structure (SMILES)
1,200,O=c1c2cccnc2c(-c2ccccc2)cn1Cc1ccncc1
2,173 to 175,COc1ccc(CNc2nn(CC(=O)O)c(=O)c3ccc(C#N)cc23)cc1Cl
3,255 to 258,O=C(O)c1cc(Cl)cc2cc(-c3ccccc3)oc12
4,120 to 122,Cc1cccc(C)c1NC(=O)N=C1CCC(C)N1C (centres undefined)
5,104 to 106,OC(c1ccc(F)cc1)C1(n2cncn2)CC1 (centres undefined)
6,158 to 161,Cc1ncoc1CN1CCc2c(c3cccc(F)c3n2C)C1=O
7,125 to 127,CC1(C)NC2C(=O)N(C(O)C(=O)OCC(Cl)(Cl)Cl)C2S1 (centres undefined)
8,222 to 224,Cc1cc(NCCO)c2[nH]nc(-c3ccc(Cl)cc3)c2n1
9,159,CCc1cccc(-c2c(-c3ccc4nn(C)cc4c3)nsc2NC(=O)[C@@H]2C[C@H]2C)n1
10,193 to 194,COc1cc(COc2nn(-c3ccccc3)cc2C=O)ccc1OCc1nc(-c2cccc(O)c2)oc1C
11,205 to 206,COC(=O)c1ccc(Nc2ccc([N+](=O)[O-])cc2C(=O)OC)cc1
12,195,COc1ccc(F)cc1NC(=O)Nc1ccc(N2CCN(C(=O)Nc3ccc(OCC(O)CO)cc3C(F)(F)F)CC2)nc1 (centres undefined)
13,94 to 96,COc1ccc(CC(=O)O)cc1C(C)C
14,156 to 158,C=C1CN(S(=O)(=O)c2ccc(C)cc2)CCCN(Cc2ccccc2)CCCN(S(=O)(=O)c2ccc(C)cc2)C1
15,89,COC(=O)c1c(C)nc2ccc(Br)cc2c1NCc1ccccc1
16,224 to 225,Nc1cccc(C=Cc2ccc(O)cc2)n1
17,189,CC(=O)OCC(=O)C1C(C)CC2C3CC(Cl)C4=CC(=O)C=CC4(C)C34OC4CC21C (centres undefined)
18,143 to 144,O=C1c2ccc([N+](=O)[O-])cc2C(=O)N1C1CCN(Cc2cccnc2)CC1
19,150 to 152,CC(O)=C(C(=O)OC(c1ccccc1)c1ccccc1)N1C(=O)C(NC(=O)COc2ccccc2)C1SS(=O)(=O)c1ccc(C)cc1 (centres undefined)
20,38 to 40,C=CCc1ccc2oc(CC)c(C)c2c1O
21,151 to 152,COc1ccc(C2NC(=O)C(C)S2)cc1OC (centres undefined)
22,125 to 126,COC(=O)Cc1c(C)n(-c2nc3ccccc3o2)c2ccc(OC)cc12
